# Reference: US20230091047A1 (priority 2019, published 2023)
# Assays:
# [1] = system: HBV (HepG2.117 cell line, inducibly HBV producing); test: Anti-HBV activity: intracellular HBV DNA by real-time PCR in HepG2.117 cells after 3 days of treatment; assay type: cell-based, hepatitis B virus; conditions: Hepatitis B virus, HepG2.117, 72 h, HepG2.117 cells, intracellular HBV DNA by real-time PCR, 3 days of treatment, mean value; read-out: EC50 (μM, mean value)
# Summary of the method: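 Tet-off HepG2.117; HBV replication induced (no doxycycline); serial compound dilutions, 3 d; intracellular HBV DNA by real-time PCR, HBV-specific primers/probe.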
# [2] = in vitro; assay type: cell-based; conditions: human, HepG2 or HepG2.117 cells, ATPlite, 3-days incubation (not marked with *), mean value
# Summary of the method: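 Luminescent ATP quantitation served as the viability endpoint following a 3- or 4-day incubation with test compounds.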
Structure (SMILES),EC50 [1],CC50 at 3 days [2]
CNC(=O)c1ccc(-n2c(NC(C)C)nc3c(c2=O)C[C@@H](C)N(C(=O)c2cc(C)cc(F)c2)C3)cc1 [Compound C492],1.98 µM,> 50 µM
CNC(=O)c1ccc(-n2c(NC(C)C)nc3c(c2=O)C[C@@H](C)N(C(=O)c2[nH]nc(C(F)(F)F)c2C)C3)cc1 [Compound C493],15.2 µM,> 50 µM
CNC(=O)c1ccc(-n2c(NC(C)C)nc3c(c2=O)C[C@@H](C)N(C(=O)c2ccc4c(c2)CNC4=O)C3)cc1 [Compound C494],2.64 µM,> 50 µM
CNC(=O)c1ccc(-n2c(NC(C)C)nc3c(c2=O)C[C@@H](C)N(C(=O)c2cc(Br)c4nccn4c2)C3)cc1 [Compound C495],> 25 µM,> 50 µM
CNC(=O)c1ccc(-n2c(NC(C)C)nc3c(c2=O)C[C@@H](C)N(C(=O)c2cc(C#N)c[nH]2)C3)cc1 [Compound C496],> 25 µM,> 50 µM
CNC(=O)c1ccc(-n2c(NC(C)C)nc3c(c2=O)C[C@@H](C)N(C(=O)c2cn4ccccc4n2)C3)cc1 [Compound C497],11.8 µM,> 50 µM
CNC(=O)c1ccc(-n2c(NC(C)C)nc3c(c2=O)C[C@@H](C)N(C(=O)c2cc(F)c(Cl)cc2F)C3)cc1 [Compound C498],2.92 µM,> 50 µM
CNC(=O)c1ccc(-n2c(NC(C)C)nc3c(c2=O)C[C@@H](C)N(C(=O)c2ccc(F)c(C)c2)C3)cc1 [Compound C499],1.53 µM,> 50 µM
CNC(=O)c1ccc(-n2c(NC(C)C)nc3c(c2=O)C[C@@H](C)N(C(=O)c2ccc(C(F)F)c(F)c2)C3)cc1 [Compound C500],0.59 µM,> 50 µM
CNC(=O)c1ccc(-n2c(NC(C)C)nc3c(c2=O)C[C@@H](C)N(C(=O)c2cc(C)c(F)c(C)c2)C3)cc1 [Compound C501],0.36 µM,> 50 µM
CNC(=O)c1ccc(-n2c(NC(C)C)nc3c(c2=O)C[C@@H](C)N(C(=O)c2cc(F)cc(F)c2)C3)cc1 [Compound C502],8.95 µM,> 50 µM
CNC(=O)c1ccc(-n2c(NC(C)C)nc3c(c2=O)C[C@@H](C)N(C(=O)c2cc4ccncc4s2)C3)cc1 [Compound C503],6.32 µM,> 50 µM
CNC(=O)c1ccc(-n2c(NC(C)C)nc3c(c2=O)C[C@@H](C)N(C(=O)c2cccc(Cl)c2OC)C3)cc1 [Compound C504],1.01 µM,> 50 µM
CNC(=O)c1ccc(-n2c(NC(C)C)nc3c(c2=O)C[C@@H](C)N(C(=O)c2cc4c(F)cccc4[nH]2)C3)cc1 [Compound C505],0.02 µM,25.6 µM
CNC(=O)c1ccc(-n2c(NC(C)C)nc3c(c2=O)C[C@@H](C)N(C(=O)c2cc(C)c(C#N)c(C)c2)C3)cc1 [Compound C506],0.94 µM,> 50 µM
CNC(=O)c1ccc(-n2c(NC(C)C)nc3c(c2=O)C[C@@H](C)N(C(=O)c2ccc(C)cc2)C3)cc1 [Compound C507],2.89 µM,> 50 µM
CNC(=O)c1ccc(-n2c(NC(C)C)nc3c(c2=O)C[C@@H](C)N(C(=O)c2ccc(C#N)c(Cl)c2)C3)cc1 [Compound C508],0.88 µM,> 50 µM
CNC(=O)c1ccc(-n2c(NC(C)C)nc3c(c2=O)C[C@@H](C)N(C(=O)c2ccc4[nH]c(=O)n(C)c4c2)C3)cc1 [Compound C509],> 25 µM,> 50 µM
CNC(=O)c1ccc(-n2c(NC(C)C)nc3c(c2=O)C[C@@H](C)N(C(=O)c2ccc4c(c2)[nH]c(=O)n4C)C3)cc1 [Compound C510],9.42 µM,> 50 µM

Structure (SMILES),EC50 [1],CC50 at 3 days [2]
CNC(=O)c1ccc(-n2c(NC(C)C)nc3c(c2=O)C[C@@H](C)N(C(=O)c2ccc(Br)cc2F)C3)cc1 [Compound C511],2.41 µM,> 50 µM
CNC(=O)c1ccc(-n2c(NC(C)C)nc3c(c2=O)C[C@@H](C)N(C(=O)c2ccc(Br)c(F)c2OC)C3)cc1 [Compound C512],1.11 µM,> 50 µM
CNC(=O)c1ccc(-n2c(NC(C)C)nc3c(c2=O)C[C@@H](C)N(C(=O)c2ccc(Br)cc2OC)C3)cc1 [Compound C513],22.1 µM,> 50 µM
CNC(=O)c1ccc(-n2c(NC(C)C)nc3c(c2=O)C[C@@H](C)N(C(=O)c2ccc(C)c(Cl)c2)C3)cc1 [Compound C514],0.61 µM,> 50 µM
CNC(=O)c1ccc(-n2c(NC(C)C)nc3c(c2=O)C[C@@H](C)N(C(=O)c2ccc(C)c(F)c2)C3)cc1 [Compound C515],1.14 µM,> 50 µM
CNC(=O)c1ccc(-n2c(NC(C)C)nc3c(c2=O)C[C@@H](C)N(C(=O)c2cc4ccc(OC)cc4n2C)C3)cc1 [Compound C516],2.68 µM,> 50 µM
CNC(=O)c1ccc(-n2c(N[C@H](C)c3cnnn3C)nc3c(c2=O)C[C@@H](C)N(C(=O)c2ccc(Cl)c(Cl)c2)C3)cc1 [Compound C517],> 25 µM,> 50 µM
CNC(=O)c1ccc(-n2c(N3CCOCC(C)C3)nc3c(c2=O)C[C@@H](C)N(C(=O)c2ccc(Cl)c(Cl)c2)C3)cc1 (stereo partly shown) [Compound C518],0.47 µM,> 50 µM
CNC(=O)c1ccc(-n2c(NC(C)C)nc3c(c2=O)C[C@@H](C)N(C(=O)c2cc(F)c(Br)c(F)c2)C3)cc1 [Compound C519],0.02 µM,> 50 µM
CNC(=O)c1ccc(-n2c(NC(C)C)nc3c(c2=O)C[C@@H](C)N(C(=O)c2ccc(Cl)cc2F)C3)cc1 [Compound C520],3.74 µM,> 50 µM
CNC(=O)c1ccc(-n2c(NC(C)C)nc3c(c2=O)C[C@@H](C)N(C(=O)c2cc(Cl)c(Br)cc2OC)C3)cc1 [Compound C521],7.64 µM,> 50 µM
CNC(=O)c1ccc(-n2c(NC(C)C)nc3c(c2=O)C[C@@H](C)N(C(=O)c2ccc(Br)cc2OC(F)F)C3)cc1 [Compound C522],0.77 µM,> 50 µM
CNC(=O)c1ccc(-n2c(NC(C)C)nc3c(c2=O)C[C@@H](C)N(C(=O)c2cc(Br)c(Cl)cc2OC)C3)cc1 [Compound C523],18 µM,> 50 µM
CNC(=O)c1ccc(-n2c(NC(C)C)nc3c(c2=O)C[C@@H](C)N(C(=O)c2cc4ccc(OC)cc4s2)C3)cc1 [Compound C524],1.36 µM,> 50 µM
CNC(=O)c1ccc(-n2c(NC(C)C)nc3c(c2=O)C[C@@H](C)N(C(=O)c2ccc(OC(F)(F)F)c(Cl)c2)C3)cc1 [Compound C525],0.15 µM,> 50 µM
CNC(=O)c1cc(-n2c(NC(C)c3ccc(OC(F)(F)F)cc3)nc3c(c2=O)C[C@@H](C)N(C(=O)c2ccc(Cl)c(Cl)c2)C3)[nH]n1 (stereo partly shown) [Compound C531],0.21 µM,26.3 µM
C[C@H](Nc1nc2c(c(=O)n1-c1ccc(-n3cccn3)cc1)C[C@@H](C)N(C(=O)c1ccc(Cl)c(Cl)c1)C2)c1ccc(C(F)(F)F)cc1 [Compound C532],0.16 µM,> 50 µM
CNC(=O)c1ccc(-n2c(N[C@@H](C)c3ccc(C(F)(F)F)cc3)nc3c(c2=O)C[C@@H](C)N(C(=O)c2ccc(Cl)c(Cl)c2)C3)cn1 [Compound C533],0.11 µM,> 50 µM
CNC(=O)c1cc(-n2c(N[C@@H](C)c3ccc(C(F)(F)F)cc3)nc3c(c2=O)C[C@@H](C)N(C(=O)c2ccc(Cl)c(Cl)c2)C3)n(C)n1 [Compound C534],0.14 µM,> 50 µM
